In the supplement of paper PMC11061612:

Legend:
Experiment in all cases: combination Emax (second highest fraction inhibited in the dose matrix, 72 h); higher = more inhibition; extreme values may be limits of the assay
NCI-H2731 (Mesothelioma) = tested on: NCI-H2731 (Mesothelioma)
Procedure, shortened: (§1)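 Bliss excess equals the observed combination effect minus the expected value EA + EB − EA·EB, where EA and EB are the effects of each agent alone. Combination Emax is the second-highest inhibition within the matrix. Inhibition was scaled from CellTiter-Glo 2.0 luminescence, with 0 set by vehicle wells and 1 by blank wells, after 72 hours of two-drug dosing of cells plated in 1536-well plates.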

[1] = tested on: MOG-G-CCM (Low Grade Glioma)
Procedure, shortened: as §1

[2] = tested on: HCC1419 (Breast Carcinoma)
Procedure, shortened: as §1

[3] = tested on: MOLM-13 (Acute Myeloid Leukemia)
Procedure, shortened: as §1

[4] = tested on: DAN-G (Pancreatic Carcinoma)
Procedure, shortened: as §1

M059J (Glioblastoma) = tested on: M059J (Glioblastoma)
Procedure, shortened: as §1

[5] = tested on: NCI-H929 (Plasma Cell Myeloma)
Procedure, shortened: as §1

[6] = tested on: CW-2 (Colorectal Carcinoma)
Procedure, shortened: as §1

[7] = tested on: RPMI-8226 (Plasma Cell Myeloma)
Procedure, shortened: as §1

[8] = tested on: NCCIT (Other Solid Carcinomas)
Procedure, shortened: as §1

[9] = tested on: SK-GT-2 (Gastric Carcinoma)
Procedure, shortened: as §1

SJSA-1 (Osteosarcoma) = tested on: SJSA-1 (Osteosarcoma)
Procedure, shortened: as §1

[10] = tested on: KMS-12-BM (Plasma Cell Myeloma)
Procedure, shortened: as §1

[11] = tested on: NCI-H526 (Small Cell Lung Carcinoma)
Procedure, shortened: as §1

[12] = tested on: JHH-4 (Hepatocellular Carcinoma)
Procedure, shortened: as §1

[13] = tested on: NCI-H3122 (Lung Adenocarcinoma)
Procedure, shortened: as §1

RD (Rhabdomyosarcoma) = tested on: RD (Rhabdomyosarcoma)
Procedure, shortened: as §1

G-361 (Melanoma) = tested on: G-361 (Melanoma)
Procedure, shortened: as §1

[14] = tested on: KU812 (Chronic Myelogenous Leukemia)
Procedure, shortened: as §1

[15] = tested on: VMRC-RCZ (Kidney Carcinoma)
Procedure, shortened: as §1

Row | SMILES | combination Emax (NCI-H2731 (Mesothelioma)) | combination Emax [1] | combination Emax [2] | combination Emax [3] | combination Emax [4] | combination Emax (M059J (Glioblastoma)) | combination Emax [5] | combination Emax [6] | combination Emax [7] | combination Emax [8] | combination Emax [9] | combination Emax (SJSA-1 (Osteosarcoma)) | combination Emax [10] | combination Emax [11] | combination Emax [12] | combination Emax [13] | combination Emax (RD (Rhabdomyosarcoma)) | combination Emax (G-361 (Melanoma)) | combination Emax [14] | combination Emax [15]
1 | COc1cccc(OCCCN)c1-c1cc(Nc2cnc(C#N)cn2)n[nH]1 [Prexasertib] + C=CCn1c(=O)c2cnc(Nc3ccc(N4CCN(C)CC4)cc3)nc2n1-c1cccc(C(C)(C)O)n1 [AZD1775] (first compound max 1 µM, partner max 1 µM) | 0.544 | 0.821 | 0.269 | 1 | 0.801 | 0.822 | 0.847 | 0.601 | 1 | 0.917 | 0.899 | 0.686 | 1 | 0.937 | 0.701 | 0.896 | 0.75 | 0.765 | 0.819 | 0.388
2 | C[C@@H](c1ccc2nccn2c1)n1nnc2ncc(-c3cnn(C)c3)nc21 [Savolitinib] + CC1(C)CCC(CN2CCN(c3ccc(C(=O)NS(=O)(=O)c4ccc(NCC5CCOCC5)c([N+](=O)[O-])c4)c(Oc4cnc5[nH]ccc5c4)c3)CC2)=C(c2ccc(Cl)cc2)C1 [Venetoclax] (first compound max 1 µM, 7x7, partner max 1 µM) | 0.144 | 0.204 | 0.268 | 0.923 | 0.0972 | 0.182 | 0.261 | 0.117 | 0.106 | 0.182 | 0.139 | 0.109 | 0.97 | 0.621 | 0.539 | 0.153 | 0.143 | 0.106 | 0.245 | 0.152
3 | Cc1cc2ncnn2cc1Nc1ncc2c(n1)n(C1CCOCC1)c(=O)n2C [AZD7648] + CN(C)CCCOc1ccc(-c2ccc3ncc4c(c3c2)n(C2CCOCC2)c(=O)n4C)cn1 [AZD0156] (first compound max 10 µM, 7x7, partner max 1 µM) | 0.274 | 0.256 | 0.358 | 0.523 | 0.597 | 0.321 | 0.855 | 0.207 | 0.248 | 0.282 | 0.159 | 0.456 | 0.49 | 0.15 | 0.247 | 0.423 | 0.195 | 0.217 | 0.467 | 0.256
4 | CN(C)CCCOc1ccc(-c2ccc3ncc4c(c3c2)n(C2CCOCC2)c(=O)n4C)cn1 [AZD0156] + C=CCn1c(=O)c2cnc(Nc3ccc(N4CCN(C)CC4)cc3)nc2n1-c1cccc(C(C)(C)O)n1 [AZD1775] (first compound max 1 µM, partner max 1 µM) | 0.285 | 0.4 | 0.104 | 0.985 | 0.651 | 0.628 | 0.675 | 0.292 | 0.656 | 0.858 | 0.714 | 0.17 | 0.948 | 0.65 | 0.428 | 0.765 | 0.401 | 0.564 | 0.789 | 0.206
5 | CC1(C)CCC(CN2CCN(c3ccc(C(=O)NS(=O)(=O)c4ccc(NCC5CCOCC5)c([N+](=O)[O-])c4)c(Oc4cnc5[nH]ccc5c4)c3)CC2)=C(c2ccc(Cl)cc2)C1 [Venetoclax] + C1CN(CCC1(C(=O)N[C@@H](CCO)C2=CC=C(C=C2)Cl)N)C3=NC=NC4=C3C=CN4 [Capivasertib] (first compound max 1 µM, 7x7, partner max 3 µM) | 0.27 | 0.348 | 0.53 | 1 | 0.195 | 0.396 | 0.997 | 0.163 | 0.172 | 0.398 | 0.162 | 0.31 | 1 | 0.769 | 0.119 | 0.362 | 0.198 | 0.159 | 0.48 | 0.206
